{
  "source": "paper PMC6838683",
  "about": "“Discovery of Human Signaling Systems: Pairing Peptides to G Protein-Coupled Receptors” (Cell, 2019)",
  "origin": "cited, not measured here",
  "biological_target": "human GPCRs",
  "parameters": "method as in Guide to Pharmacology database",
  "details": "max reported value, ref Guide to Pharmacology database, cited from earlier work",
  "source_text": "Supplement mmc1.xlsx, sheet \"HumanGPCRLigands\" | column: pKi_value; pKd_value; pEC50_value; pIC50_value",
  "key": {"[1]": {"details": "receptor 5ht1b_human (HTR1B, P28222)"}, "[2]": {"details": "receptor 5ht1f_human (HTR1F, P30939)"}, "[3]": {"details": "receptor 5ht2a_human (HTR2A, P28223)"}, "[4]": {"details": "receptor 5ht4r_human (HTR4, Q13639)"}, "[5]": {"details": "receptor OXER1 (oxer1_human, Q8TDS5)"}, "[6]": {"details": "receptor LTB4R2 (lt4r2_human, Q9NPC1)"}, "[7]": {"details": "receptor gpbar_human (GPBAR1), Bile acid receptors"}, "[8]": {"details": "receptor gpr63_human (GPR63), Class A orphans"}},
  "note": "Where two headings read alike, the source gives them in different places. Residues, ends and D or L forms follow the SMILES beside them.",
  "data": [
    {"molecule": "NCCc1c[nH]c2ccc(O)cc12", "note": "[Peptide 5-hydroxytryptamine]", "values": [
      {"measurement": "pKi_value", "setting": "receptor 5ht1a_human (HTR1A, P08908)", "value": 9.7},
      {"measurement": "pKd_value", "setting": "[1]", "value": 8.4},
      {"measurement": "pKi_value", "setting": "[1]", "value": 9},
      {"measurement": "pKi_value", "setting": "receptor 5ht1d_human (HTR1D, P28221)", "value": 9},
      {"measurement": "pKi_value", "setting": "receptor 5ht1e_human (HTR1E, P28566)", "value": 8.2},
      {"measurement": "pKd_value", "setting": "[2]", "value": 8},
      {"measurement": "pKi_value", "setting": "[2]", "value": 8},
      {"measurement": "pKd_value", "setting": "[3]", "value": 8.9},
      {"measurement": "pKi_value", "setting": "[3]", "value": 8.4},
      {"measurement": "pKi_value", "setting": "receptor 5ht2b_human (HTR2B, P41595)", "value": 8.4},
      {"measurement": "pKi_value", "setting": "receptor 5ht2c_human (HTR2C, P28335)", "value": 8.6},
      {"measurement": "pKd_value", "setting": "[4]", "value": 8.8},
      {"measurement": "pKi_value", "setting": "[4]", "value": 7},
      {"measurement": "pKi_value", "setting": "receptor 5ht5a_human (HTR5A, P47898)", "value": 6.9},
      {"measurement": "pKi_value", "setting": "receptor 5ht6r_human (HTR6, P50406)", "value": 7.5},
      {"measurement": "pKi_value", "setting": "receptor 5ht7r_human (HTR7, P34969)", "value": 9.6}
    ]},
    {"molecule": "CCCCC[C@H](O)/C=C/C=C\\C/C=C\\C=C\\C(=O)CCCC(=O)O", "note": "[Peptide 5-oxo-15-HETE]", "values": [
      {"measurement": "pEC50_value", "setting": "[5]", "value": 7.7}
    ]},
    {"molecule": "CCCCC/C=C\\C/C=C\\C/C=C\\C=C\\C(=O)CCCC(=O)O", "note": "[Peptide 5-oxo-ETE]", "values": [
      {"measurement": "pEC50_value", "setting": "[5]", "value": 8.5}
    ]},
    {"molecule": "CCCCCCCCC/C=C\\C=C\\C(=O)CCCC(=O)O", "note": "[Peptide 5-oxo-ODE]", "values": [
      {"measurement": "pEC50_value", "setting": "[5]", "value": 8}
    ]},
    {"molecule": "CCCCC/C=C\\C/C=C\\C/C=C\\C=C\\[C@@H](O)CCCC(=O)O", "note": "[Peptide 5S-HETE]", "values": [
      {"measurement": "pEC50_value", "setting": "[5]", "value": 7.2}
    ]},
    {"molecule": "CCCCC/C=C\\C/C=C\\C/C=C\\C=C\\[C@H](CCCC(=O)O)OO", "note": "[Peptide 5S-HPETE]", "values": [
      {"measurement": "pEC50_value", "setting": "[5]", "value": 7}
    ]},
    {"molecule": "CCCCC/C=C\\C[C@@H](O)/C=C/C=C\\C/C=C\\CCCC(=O)O", "note": "[Peptide 12R-HETE]", "values": [
      {"measurement": "pKi_value", "setting": "receptor LTB4R (lt4r1_human, Q15722)", "value": 7.5}
    ]},
    {"molecule": "CCCCC/C=C\\C[C@H](O)/C=C/C=C\\C/C=C\\CCCC(=O)O", "note": "[Peptide 12S-HETE]", "values": [
      {"measurement": "pEC50_value", "setting": "[6]", "value": 7.5}
    ]},
    {"molecule": "CCCCC[C@H](O)/C=C/C=C\\C/C=C\\C/C=C\\CCCC(=O)O", "note": "[Peptide 15S-HETE]", "values": [
      {"measurement": "pEC50_value", "setting": "[6]", "value": 7.5}
    ]},
    {"molecule": "Nc1ncnc2c1ncn2[C@@H]1O[C@H](CO)[C@@H](O)[C@H]1O", "note": "[adenosine]", "values": [
      {"measurement": "pKi_value", "setting": "receptor aa1r_human (ADORA1), Adenosine receptors", "value": 7},
      {"measurement": "pKi_value", "setting": "receptor aa2ar_human (ADORA2A), Adenosine receptors", "value": 6.5},
      {"measurement": "pKi_value", "setting": "receptor aa2br_human (ADORA2B), Adenosine receptors", "value": 4.8},
      {"measurement": "pKi_value", "setting": "receptor aa3r_human (ADORA3), Adenosine receptors", "value": 6.5}
    ]},
    {"molecule": "CCCCC/C=C\\C/C=C\\C/C=C\\C/C=C\\CCCC(=O)NCCO", "note": "[anandamide]", "values": [
      {"measurement": "pKi_value", "setting": "receptor CNR1 (cnr1_human, P21554)", "value": 7},
      {"measurement": "pKi_value", "setting": "receptor CNR2 (cnr2_human, P34972)", "value": 6.4}
    ]},
    {"molecule": "CC[C@H](C)[C@H](NC(=O)[C@H](Cc1ccc(O)cc1)NC(=O)[C@@H](NC(=O)[C@@H](N)CCCNC(=N)N)C(C)C)C(=O)N[C@@H](Cc1cnc[nH]1)C(=O)N1CCC[C@H]1C(=O)N[C@@H](Cc1ccccc1)C(=O)O", "note": "[angiotensin III]", "values": [
      {"measurement": "pIC50_value", "setting": "receptor agtr1_human (AGTR1, P30556)", "value": 8.5},
      {"measurement": "pKd_value", "setting": "receptor agtr2_human (AGTR2, P50052)", "value": 10.4}
    ]},
    {"molecule": "CC/C=C\\C[C@@H](O)/C=C/C=C\\C=C\\C=C\\[C@@H](O)[C@@H](O)C/C=C\\CCC(=O)O", "note": "[aspirin-triggered resolvin D1]", "values": [
      {"measurement": "pEC50_value", "setting": "receptor fpr2_human (FPR2, P25090)", "value": 11.1}
    ]},
    {"molecule": "NC(N)=NCCC[C@H](NC(=O)[C@H](Cc1ccccc1)NC(=O)[C@@H]1CCCN1C(=O)[C@H](CO)NC(=O)[C@H](Cc1ccccc1)NC(=O)CNC(=O)[C@@H]1CCCN1C(=O)[C@@H]1CCCN1C(=O)[C@@H](N)CCCN=C(N)N)C(=O)O", "note": "[bradykinin] (H-RPPGFSPFR-OH)", "values": [
      {"measurement": "pKi_value", "setting": "receptor bkrb1_human (BDKRB1, P46663)", "value": 4},
      {"measurement": "pIC50_value", "setting": "receptor bkrb2_human (BDKRB2, P30411)", "value": 9.3}
    ]},
    {"molecule": "C[C@H](CCC(=O)O)[C@H]1CC[C@H]2[C@@H]3[C@H](O)C[C@@H]4C[C@H](O)CC[C@]4(C)[C@H]3CC[C@]12C", "note": "[chenodeoxycholic acid]", "values": [
      {"measurement": "pEC50_value", "setting": "[7]", "value": 5.4}
    ]},
    {"molecule": "C[C@H](CCC(=O)O)[C@H]1CC[C@H]2[C@@H]3[C@H](O)C[C@@H]4C[C@H](O)CC[C@]4(C)[C@H]3C[C@H](O)[C@]12C", "note": "[cholic acid]", "values": [
      {"measurement": "pEC50_value", "setting": "[7]", "value": 5}
    ]},
    {"molecule": "C[C@H](CCC(=O)O)[C@H]1CC[C@H]2[C@@H]3CC[C@@H]4C[C@H](O)CC[C@]4(C)[C@H]3C[C@H](O)[C@]12C", "note": "[deoxycholic acid]", "values": [
      {"measurement": "pEC50_value", "setting": "[7]", "value": 6.2}
    ]},
    {"molecule": "CCCCCCCCCCCCCCC[C@@H](O)[C@@H](N)COP(=O)(O)O", "note": "[dihydrosphingosine 1-phosphate]", "values": [
      {"measurement": "pEC50_value", "setting": "[8]", "value": 6.2}
    ]},
    {"molecule": "CCCCCCCC/C=C\\CCCCCCCC(=O)OC[C@H](COP(=O)(O)O)OC(=O)CCCCCCC/C=C\\CCCCCCCC", "note": "[dioleoylphosphatidic acid]", "values": [
      {"measurement": "pEC50_value", "setting": "[8]", "value": 6.3}
    ]}
  ]
}
